The values that follow are results of earlier work, collected in US20250089716A1, “IMMEDIATE-RELEASE PESTICIDE FORMULATION” (priority 2022, published 2025).

The conditions of this series: extender component; unit not given.
Turning to `[Cl-].[K+]` [Potassium chloride], the Water solubility is 34 g/100 ml. With `[Cl-].[Cl-].[Zn+2]` [Zinc chloride], the Water solubility is recorded as 395 g/100 ml. For the molecule `OC[C@H]1O[C@@](CO)(O[C@H]2O[C@H](CO)[C@@H](O)[C@H](O)[C@H]2O)[C@@H](O)[C@@H]1O` [Sucrose], the Water solubility was 202 g/100 ml.

In the case of `OC[C@@H](O)[C@@H](O)[C@H](O)[C@@H](O)CO` [Sorbitol], the Water solubility was 235 g/100 ml. With `NC(N)=O` [Urea], the Water solubility was 100 g/100 ml. As for Flactose, the Water solubility is reported as 375 g/100 ml. For `O=C[C@H](O)[C@@H](O)[C@H](O)CO` [Xylose], the Water solubility is reported as 133 g/100 ml.
